Data: US8012944B2, “Method for treating cancer using IAP antisense oligomer and chemotherapeutic agent” (Pharmascience Inc., priority 2003, dated 2011)
Oligonucleotides are written 5' to 3', each unit as a sugar letter and its base; * is a phosphorothioate linkage, no mark a phosphodiester; rarer units and linkages stand in square brackets, end groups in braces. Plain capitals give the bases only. d = 2'-deoxy (DNA); m = 2'-O-methyl

What was measured:
XIAP mRNA [1] = test: XIAP mRNA knock-down in H460 cells (real-time RT-PCR / TaqMan); type: cell-based, human; conditions: 2 × 2 MBO; NCI-H460 cells, 9 hours post-transfection; relative level (mock control 1.01)
XIAP mRNA [2] = test: as above; type: cell-based, human
Experimental: RNA was extracted from cells lysed in RLT buffer (QIAGEN, Valencia, Calif.), and purified using QIAGEN RNeasy columns/kits. Real-time quantitative PCR was performed on a Perkin-Elmer ABI 7700 Prism PCR machine. RNA was reverse transcribed and amplified according to the TaqMan Universal PCR Master Mix protocol of PE Biosystems, using primers and probes designed to specifically recognize XIAP, HIAP1, survivin, or GAPDH. For human survivin, the forward primer was 5′-[…]-3′ (SEQ ID NO: 263), the reverse primer was 5′-GAAAGGAAAGCGCAACCG-3′ (SEQ ID NO: 264), and the probe was 5′-(FAM)[…](TAMRA)-3′ (SEQ ID NO: 265). For human HIAP1, the forward primer was 5′-[…]-3′ (SEQ ID NO: 266), the reverse primer was 5′-[…]-3′ (SEQ ID NO: 267), and the probe was 5′-(FAM)[…](TAMRA)-3′ (SEQ ID NO: 268). For human XIAP, the forward primer was 5′-[…]-3′ (SEQ ID NO: 269), the reverse primer was 5′-[…]-3′ (SEQ ID NO: 270), and the probe was 5′-(FAM)[…](TAMRA)-3′ (SEQ ID NO: 271). For human GAPDH, the forward primer was 5′-GAAGGTGAAGGTCGGAGTC-3′ (SEQ ID NO: 272), the reverse primer was 5′-GAAGATGGTGATGGGATTC-3′ (SEQ ID NO: 273), and the probe was 5′-(JOE)[…](TAMRA)-3′ (SEQ ID NO: 274). FAM is 6-carboxyfluoroscein, JOE is 6-carboxy-4,5-dichloro-2,7-dimethoxyfluoroscein, and TAMRA is 6-carboxy-N,N,N′,N′-tetramethylrhodamine. FAM and JOE are 5′ reporter dyes, while TAMRA is a 3′ quencher dye.
Relative quantification of gene expression was performed as described in the PE Biosystems manual using GAPDH as an internal standard. The comparative Ct (cycle threshold) method was used for relative quantitation of IAP mRNA levels compared to GAPDH mRNA levels. Briefly, real-time fluorescence measurements were taken at each PCR cycle and the threshold cycle (Ct) value for each sample was calculated by determining the point at which fluorescence exceeded a threshold limit of 30 times the baseline standard deviation. The average baseline value and the baseline SD are calculated starting from the third cycle baseline value and stopping at the baseline value three cycles before the signal starts to exponentially rise. The PCR primers and/or probes for the specific IAPs were designed to span at least one exon-intron boundary separated by 1 kb or more of genomic DNA, to reduce the possibility of amplifying and detecting genomic DNA contamination. The specificity of the signal, and possible contamination from DNA, were verified by treating some RNA samples with either DNase or RNase, prior to performing the reverse transcription and PCR reaction steps.
A portion of the 96 nucleobase oligomers depicted in Table 2 were rescreened for their ability to knock-down XIAP mRNA in NCI-H460 cells at […] post-transfection.
One day prior to transfection, H460 cells were plated in 6- or 96-well tissue culture plates. Phosphorothioate antisense oligonucleotides were delivered into cells with Lipofectamine 2000 (Life Technologies) in the form of liposome-oligonucleotide complexes. Following a 4.5 or 6 h transfection, the transfection medium was replaced with RPMI medium containing 10% FBS, and the cells incubated for another 24 or 48 h.
Total RNA from H460 cells treated with liposome-oligonucleotide complexes for 6 hours was immediately isolated using RNeasy mini spin columns and DNase treatment (QIAGEN, Valencia, Calif.). Specific XIAP mRNA was measured using a real-time quantitative RT-PCR method. […]

For “ACATTATATTAGGAAATCC (mA*mCdAdTdTdAdTdAdTdTdAdGdGdAdAdAdTmC*mC; antisense) [Code D3]”, the “XIAP RNA” value (XIAP mRNA [1]) was 0.68 and the “XIAP down-regulation H460 RNA” value (XIAP mRNA [2]) was 30%.

In the case of “CAGATATATATGTAACACT (antisense; sugars from the 5' end m2 d15 m2, backbone and T or U not given here; further chemistry not fully specified) [Code C1]”, the “XIAP RNA” value (XIAP mRNA [1]) was 0.3 and the “XIAP down-regulation H460 RNA” value (XIAP mRNA [2]) was 66%.

In the case of “AAGCTTCTCCTCTTGCAGG (antisense; sugars from the 5' end m2 d15 m2, linkages s1 o16 s1 (s phosphorothioate, o phosphodiester), methylation of C not given here) [Code F10]”, the “XIAP RNA” value (XIAP mRNA [1]) was 0.64 and the “XIAP down-regulation H460 RNA” value (XIAP mRNA [2]) was 51%.

“ATATTTCTATCCATACAGA (antisense; sugars from the 5' end m2 d15 m2, backbone, methylation of C and T or U not given here; further chemistry not fully specified) [Code G10]” was tested, and the “XIAP RNA” value (XIAP mRNA [1]) was 0.49 and the “XIAP down-regulation H460 RNA” value (XIAP mRNA [2]) was 56%.

For “GTTATAGGAGCTAACAAAT (antisense; sugars from the 5' end m2 d15 m2, backbone and T or U not given here; further chemistry not fully specified) [Code B3]”, the “XIAP RNA” value (XIAP mRNA [1]) was 0.64 and the “XIAP down-regulation H460 RNA” value (XIAP mRNA [2]) was 34%.

With “GTTAGTGATGGTGTTTTGT (antisense; sugars from the 5' end m2 d15 m2, backbone and T or U not given here; further chemistry not fully specified) [Code E9]” the “XIAP RNA” value (XIAP mRNA [1]) was 0.69 and the “XIAP down-regulation H460 RNA” value (XIAP mRNA [2]) was 43%.

In the case of “GGAAGATTTGTTGAATTTG (antisense; sugars from the 5' end m2 d15 m2, backbone and T or U not given here; further chemistry not fully specified) [Code F7]”, the “XIAP RNA” value (XIAP mRNA [1]) was 0.3 and the “XIAP down-regulation H460 RNA” value (XIAP mRNA [2]) was 69%.

“TTCAGTTTTCCACCACAAC (antisense; sugars from the 5' end m2 d15 m2, backbone, methylation of C and T or U not given here; further chemistry not fully specified) [Code H6]” was tested, and the “XIAP RNA” value (XIAP mRNA [1]) was 0.31 and the “XIAP down-regulation H460 RNA” value (XIAP mRNA [2]) was 68%.

With “TATATATTCTTGTCCCTTC (antisense; sugars from the 5' end m2 d15 m2, backbone, methylation of C and T or U not given here; further chemistry not fully specified) [Code A9]” the “XIAP RNA” value (XIAP mRNA [1]) was 0.46 and the “XIAP down-regulation H460 RNA” value (XIAP mRNA [2]) was 62%.

With “ACAGGACTACCACTTGGAA (antisense; chemistry not fully specified) [Code B4]” the “XIAP down-regulation H460 RNA” value (XIAP mRNA [2]) was 76%.

With “AGCACATTGTTTACAAGTG (antisense; sugars from the 5' end m2 d15 m2, backbone, methylation of C and T or U not given here; further chemistry not fully specified) [Code A11]” the “XIAP RNA” value (XIAP mRNA [1]) was 0.36 and the “XIAP down-regulation H460 RNA” value (XIAP mRNA [2]) was 68%.

With “TTGTAGACTGCGTGGCACT (antisense; sugars from the 5' end m2 d15 m2, backbone and T or U not given here; further chemistry not fully specified) [Code B5]” the “XIAP RNA” value (XIAP mRNA [1]) was 0.38 and the “XIAP down-regulation H460 RNA” value (XIAP mRNA [2]) was 61%.

“AGCACATGGGACACTTGTC (antisense; sugars from the 5' end m2 d15 m2, backbone, methylation of C and T or U not given here; further chemistry not fully specified) [Code B11]” was tested, and the “XIAP RNA” value (XIAP mRNA [1]) was 0.39 and the “XIAP down-regulation H460 RNA” value (XIAP mRNA [2]) was 63%.

“ATTCAATCAGGGTAATAAG (antisense; sugars from the 5' end m2 d15 m2, backbone, methylation of C and T or U not given here; further chemistry not fully specified) [Code E11]” was tested, and the “XIAP RNA” value (XIAP mRNA [1]) was 0.52 and the “XIAP down-regulation H460 RNA” value (XIAP mRNA [2]) was 48%.

With “TGAGAGCCCTTTTTTTGTT (antisense; sugars from the 5' end m2 d15 m2, backbone and T or U not given here; further chemistry not fully specified) [Code D1]” the “XIAP RNA” value (XIAP mRNA [1]) was 0.25 and the “XIAP down-regulation H460 RNA” value (XIAP mRNA [2]) was 75%.

With “AGTATGAAATATTTCTGAT (antisense; sugars from the 5' end m2 d15 m2, backbone and T or U not given here; further chemistry not fully specified) [Code E1]” the “XIAP RNA” value (XIAP mRNA [1]) was 0.31 and the “XIAP down-regulation H460 RNA” value (XIAP mRNA [2]) was 69%.

With “TCTAGAGGGTGGCTCAGGA (antisense; sugars from the 5' end m2 d15 m2, backbone and T or U not given here; further chemistry not fully specified) [Code B1]” the “XIAP RNA” value (XIAP mRNA [1]) was 0.34 and the “XIAP down-regulation H460 RNA” value (XIAP mRNA [2]) was 66%.

“TTTCTCAGTAGTTCTTACC (antisense; sugars from the 5' end m2 d15 m2, backbone, methylation of C and T or U not given here; further chemistry not fully specified) [Code D9]” was tested, and the “XIAP RNA” value (XIAP mRNA [1]) was 0.73 and the “XIAP down-regulation H460 RNA” value (XIAP mRNA [2]) was 39%.

For “ATTATTTTCTTAATGTCCT (antisense; sugars from the 5' end m2 d15 m2, backbone, methylation of C and T or U not given here; further chemistry not fully specified) [Code A10]”, the “XIAP RNA” value (XIAP mRNA [1]) was 0.85 and the “XIAP down-regulation H460 RNA” value (XIAP mRNA [2]) was 29%.

With “AAGTAAAGATCCGTGCTTC (antisense; sugars from the 5' end m2 d15 m2, backbone, methylation of C and T or U not given here; further chemistry not fully specified) [Code H7]” the “XIAP RNA” value (XIAP mRNA [1]) was 0.49 and the “XIAP down-regulation H460 RNA” value (XIAP mRNA [2]) was 63%.

With “CTTGAAAGTAATGACTGTG (antisense; sugars from the 5' end m2 d15 m2, backbone, methylation of C and T or U not given here; further chemistry not fully specified) [Code C11]” the “XIAP RNA” value (XIAP mRNA [1]) was 0.44 and the “XIAP down-regulation H460 RNA” value (XIAP mRNA [2]) was 52%.

With “TCTGCCATGGATGGATTTC (antisense; sugars from the 5' end m2 d15 m2, backbone, methylation of C and T or U not given here; further chemistry not fully specified) [Code G7]” the “XIAP RNA” value (XIAP mRNA [1]) was 0.66 and the “XIAP down-regulation H460 RNA” value (XIAP mRNA [2]) was 41%.

With “TATCCACTTATGACATAAA (antisense; chemistry not fully specified) [Code A3]” the “XIAP down-regulation H460 RNA” value (XIAP mRNA [2]) was 27%.

For “ATTGGTTCCAATGTGTTCT (antisense; chemistry not fully specified) [Code F1]”, the “XIAP down-regulation H460 RNA” value (XIAP mRNA [2]) was 81%.

With “ACTGGGCTTCCAATCAGTT (antisense; sugars from the 5' end m2 d15 m2, backbone, methylation of C and T or U not given here; further chemistry not fully specified) [Code H8]” the “XIAP RNA” value (XIAP mRNA [1]) was 0.61.

For “MAmUGACCACTTCCTCTATmGmG (ANGACCACNNCCNCNANGG; 2'-O-methyl modifications, chemistry not fully specified) [DE4 rev, reference compound]”, the “XIAP RNA” value (XIAP mRNA [1]) was 1.06.

For “AAGCAGTGCACTTGGTCAC (antisense; sugars from the 5' end m2 d15 m2, linkages s1 o16 s1 (s phosphorothioate, o phosphodiester), methylation of C not given here) [Code G6]”, the “XIAP down-regulation H460 RNA” value (XIAP mRNA [2]) was 69%.
